The text below walks through data of patent publication US10246498B2, “Genetically encoded histone reporter allele constructs” (THE JOHNS HOPKINS UNIVERSITY, priority 2014, dated 2019).

Each structure is given as a SMILES string. “Also recorded” adds a separate entry of the source.

For experiment [1], the system named is Kmt2d+/βGeo mouse model of Kabuki syndrome. Put plainly: Morris water maze. The format is in vivo. As to conditions: 10 mg/kg/day. The source says: Kmt2d^+/βGeo mice, also named Mll2Gt^(RRt024)Byg, were acquired from Bay Genomics (University of California). All experimental mice were on a mixed C57BL/6J and 129/SvEv background. Expected Mendelian ratios were observed when heterozygous animals were bred to wild-type. In heterozygous crosses, however, there was uniform embryonic lethality of homozygotes by ED12, the earliest developmental stage assayed. For treatment with AR-42, mice were orally gavaged daily with drug (Selleck Chemicals, Houston, Tex.) solubilized in vehicle (0.5% methylcellulose, 0.1% Tween-80, water) or with vehicle alone. Drug delivery information was kindly provided by Drs. […] For quantification of DCX positive cells, doses of 0, 5, 10 and 25 mg/kg/day were used. […] Maxillary protrusion was evaluated by ten investigators blinded to genotype and they were asked to rate maxillary protrusion on radiographs as either large (2) or small (1). […]
Mice were placed in a 1.1 meter diameter tank filled with room temperature water dyed with non-toxic white paint. […] Latency to reach the platform was measured during each trial. […] Average number of crossings of the platform's previous location was recorded. […] For all training and probe testing, data was recorded both manually and electronically with ANY-maze software (San Diego Instruments, San Diego, Calif.) when applicable. […]

The subject of experiment [2] is H3K4 trimethylation activity in MEFs. Put plainly: H3K4me3 indicator in murine embryonic fibroblasts from Kmt2d+/βGeo and Kmt2d+/+ mice. It counts as cell-based, mouse. The text has this:
An H3K4 trimethylation reporter was also created (FIG. 5B). This reporter is based on the H3 tail on one end and the TBP associated factor III (TAFIII) […] on the other end; the TAFIII […] only identifies and binds to trimethylated K4 on H3. When the H3K4 site gets trimethylated, the TAFIII […] can bind to the modified H3 tail and bring the two parts of the separated GFP in close proximity. The activity of the epigenetic modification system can be quantified through fluorescence.
Epigenetic reporter alleles were synthesized (OriGene, Rockville, Md.) using published sequences for component elements (Baird et al. (1999) Proc. Natl. Acad. Sci. 96:11241-6; Souslova et al. (2007) BMC Biotechnol. 7:37). Single nucleotide mutations were created using the QuickChange Lightening kit (Agilent Technologies Inc, Santa Clara, Calif.). For H4ac indicator, K5R, K8R, K12R, K16R and K20R (MUT indicator) were introduced. For H3K4me3 indicator, K4Q and D890A/W891A and M882A (three separate constructs) were introduced. For transient transfections, mouse embryonic fibroblasts (see below) were transfected with Fugene HD (Promega, Madison, Wis.), 48 hours prior to FACS. […] For drug stimulation, drug was added to the media 24 hours prior to FACS. For stable transfections in T293 (American Type Culture Collection) cells, 10 μg/ml of Blastocidin (Life Technologies, Carlsbad, Calif.) was added to the media for several weeks. For stable transfection in MEFs, the reporter was transferred to a ViraPower Lentiviral Expression System (Life Technologies, Carlsbad, Calif.). After selection with Blastocidin, the drug of interest was added 24 hours prior to FACS. SAHA, AR-42 and MS275 were purchased from Selleck (Selleck Chemicals, Houston, Tex.). […] FACS data were analyzed using FlowJo (Tree Star Inc, Ashland, Oreg.). A plasmid expressing HDAC3 was acquired from Addgene (Cambridge, Mass., plasmid 13819) and transfected into a stable cell line carrying the H4 acetyl reporter allele.

As to `CC(C)[C@H](C(=O)Nc1ccc(C(=O)NO)cc1)c1ccccc1` [AR-42], the “frequency of platform crossing, probe trial” value in experiment [1] is listed as “improved performance; also recorded: normalized”. In addition, in experiment [1] (Kmt2d+/βGeo animals), the “escape latency during training, with versus without drug” value is listed as “No significant difference”. For the same compound, the “dose at which Kmt2d+/βGeo MEFs achieve untreated wild-type levels of activity” value in experiment [2] (Kmt2d+/βGeo MEFs) stood at 5 µM. Further, the H3K4 trimethylation activity entry in experiment [2] (Kmt2d+/βGeo cells (MEFs)) was “enhanced”. Further, in experiment [2] (both genotypes (Kmt2d+/+ and Kmt2d+/βGeo)), the “H3K4me3 indicator activity in MEFs” value is “dose-dependent response”.
